Reference: the NIST ThermoML archive (doi:10.1016/j.fluid.2009.10.009)
Numbers after ± are expanded uncertainties.

Conditions: Crystal

| Normal melting temperature (visual observation) | Normal melting temperature (Visual) | Structure (SMILES) |
| --- | --- | --- |
| 148.00 ± 0.39 °C |  | CC(C)CCC[C@@H](C)[C@H]1CC[C@H]2[C@@H]3CC=C4C[C@@H](O)CC[C@]4(C)[C@H]3CC[C@]12C [.DELTA.5-cholesten-3β-ol] |
|  | 7.00 °C | CCCCCCCCCCO [decan-1-ol] |
